From article PMC12097015, “Development of MDM2‐Targeting PROTAC for Advancing Bone Regeneration” (Advanced Science, 2025)

Key:
MDM2 [1] = molecular target: T1, MDM2 (Homo sapiens, UniProt Q00987); assay: MDM2 degradation by western blot in hBMSCs; assay type: cell-based; parameters: endogenous in cells; host or cells: hBMSCs; details: for MDM2 degradation (western blot) / decrease in MDM2 levels compared to the basal level: 10 μΜ for 1 h
Protocol: Human Bone Marrow‐derived Mesenchymal Stem Cells (hBMSCs) were provided by Professor Lee's laboratory, and cells from passages four to nine were used for all experiments. hBMSCs were cultured in alpha‐minimum essential medium (Welgene, LM008‐01) supplemented with 10% Fetal Bovine Serum (FBS) (Gibco, US origin, 16000–044) and 1% penicillin/streptomycin (Gibco, 15140‐122).
(§1) After discarding the medium and washing the cells twice with cold dPBS, the cells were collected using a scraper and lysed using RIPA buffer (GenDEPOT, R4200‐010) containing protease and phosphatase inhibitors (GenDEPOT, P3200‐001). The collected samples were centrifuged at 13 200 rpm for 10 min at 4 °C, and the supernatant containing total protein was collected. SDS‐PAGE gels (10–12%) were prepared, and protein samples were mixed with 5X loading buffer containing reducing agent (Biosesang, S2002) and heated at 98 °C for 5 min. Equal amounts of protein samples were loaded onto a gel, separated by electrophoresis, and transferred onto nitrocellulose membranes using a Dry Transfer Stacks Kit (Invitrogen, IB23001). The membrane was blocked with 5% nonfat milk in 1X TBST for 1 h at room temperature to prevent nonspecific binding. The membranes were incubated with primary antibodies specific to the target proteins overnight at 4 °C with gentle shaking. The next day, the membrane was washed three times with TBST at 10 min intervals to remove unbound primary antibodies. The membranes were incubated with secondary antibodies (anti‐rabbit and anti‐mouse) conjugated to horseradish peroxidase (HRP) for 1 h at room temperature. The membrane was washed three times with 1X TBST at 10 min intervals to remove unbound secondary antibodies. After washing, a chemiluminescent substrate (ECL, Millipore, WBULS0100) was applied to the membrane to visualize protein bands using a chemiluminescence detector (for the antibodies used, see Table S2, Supporting Information).
The DC50 and Dmax values were calculated by western blot band quantification according to compound concentrations. The quantification value was normalized to the value relative to the untreated group and calculated using the sigmoidal dose‐response (variable slope) equation in GraphPad Prism.
Target sequence in this assay (Q00987 whole entry): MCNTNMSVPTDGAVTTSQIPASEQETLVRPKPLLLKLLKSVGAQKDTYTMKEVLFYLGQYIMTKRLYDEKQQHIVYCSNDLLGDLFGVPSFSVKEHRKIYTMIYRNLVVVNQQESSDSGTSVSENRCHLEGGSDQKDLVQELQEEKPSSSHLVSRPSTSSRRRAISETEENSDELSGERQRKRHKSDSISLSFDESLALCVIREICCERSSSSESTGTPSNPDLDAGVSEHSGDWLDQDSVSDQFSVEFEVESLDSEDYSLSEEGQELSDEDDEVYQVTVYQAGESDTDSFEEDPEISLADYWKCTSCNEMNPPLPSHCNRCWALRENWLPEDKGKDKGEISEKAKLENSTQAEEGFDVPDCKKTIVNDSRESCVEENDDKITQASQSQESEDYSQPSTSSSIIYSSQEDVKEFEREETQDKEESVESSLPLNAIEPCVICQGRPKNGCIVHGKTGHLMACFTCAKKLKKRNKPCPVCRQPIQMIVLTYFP

MDM2 [2] = molecular target: T1, MDM2; assay: Microscale thermophoresis (MST) binding assay; parameters: made in house; host or cells: E. coli BL21 (DE3); details: His-Tag MDM2, n = 3, read-out: dissociation constant (Kd)
Target sequence in this assay (Q00987 whole entry, species assumed): as the sequence (Q00987 whole entry) above
Protocol: E. coli BL21 (DE3) competent cells transformed with pSPEL870 were used to express MDM2 protein.^[ [27] ^] The recombinant strain was cultured in 500 mL 2XYT at 37 °C until the optical density (OD600 ) reached 0.5. Protein expression was induced by adding 0.2 mM isopropyl β‐D‐1‐thiogalactopyranoside (IPTG; Bioshop, Canada) at 20 °C overnight. […] The protein was purified using Ni‐NTA resin (Qiagen, Germany), according to the manufacturer's protocol. The purified protein was buffer exchanged with phosphate‐buffered saline (PBS, pH 7.4) using a centrifugal filter unit (MWCO: 10 K; Merck Millipore, USA). The protein was stored at –20 °C in PBS with 20% glycerol and 1 mM dithiothreitol (DTT).
The His‐Tag MDM2 protein was labeled using a His‐Tag Labeling Kit RED‐tris‐NTA second Generation (NanoTemper, MO‐L018) according to the manufacturer's instructions. […] The final mixtures were transferred to capillaries (NanoTemper, MO‐K022) and the samples were measured using a Monolith NT.115Pico (NanoTemper) instrument (auto LED power; medium MST power). […] The signals were represented as normalized changes in fluorescence (Fnorm ) upon ligand binding. Baseline‐corrected normalized fluorescence (DFnorm ) was obtained from Fnorm values using MO Affinity Analysis, and the dissociation constants (Kd ) were determined by curve fitting (variable slope model) using GraphPad Prism 10.

EGFP‐MDM2 = assay: EGFP-MDM2 fluorescence / live imaging degradation assay; assay type: cell-based
Protocol: HeLa cells were cultured in DMEM (Welgene, LM001‐05) supplemented with 10% FBS (Welgene, S001‐07). For transient transfection, the cells were seeded at ≈70% confluence. The following day, transfection was performed using Lipofectamine 3000 (Invitrogen, L3000015) for 24 h according to the manufacturer's protocol. The cells were transfected with 100 ng of EGFP‐MDM2 per well in the 96‐well plate and were transfected with 2 µg of MDM2 WT and 2 µg of HA‐ubiquitin, total 4 µg per well in the 6‐well plate.
To construct the EGFP‐MDM2 plasmid DNA, MDM2 WT was amplified by PCR using specific primers. The PCR products were digested with BamH1 and EcoR1 to generate compatible ends. The plasmid backbone, EGFP‐C1, previously digested with the same enzyme, was ligated into the digested PCR product using T4 ligase (Biolabs, M0202S). The resulting plasmid construct was confirmed using restriction enzyme digestion and DNA sequencing. MDM2 WT (#16233) and HA‐ubiquitin (#18712) were purchased from Addgene (used primer sequences, see Table S2, Supporting Information).
Real‐time Live cell imaging (phase contrast, EGFP fluorescence) was performed to monitor EGFP‐MDM2 intensity at 7 min intervals after compound treatment using Cytation5 (Agilent) laser autofocus conditions to capture EGFP fluorescence to assess intensity. For fluorescence imaging, the cells were fixed using 4% PFA and washed three times with 1X dPBS. Fluorescence imaging was performed using the Cytation5. The intensity of fluorescence was assessed by tracking the fluorescence of individual cells in each image using the Time‐lapse analyzer or ROI measure feature of the Fiji ImageJ software (Version 1.54 h, USA).

[3] = system: OVX-induced osteoporosis model; assay: Ovariectomy (OVX)-induced osteoporosis mouse model; assay type: in vivo, C57BL6 mice; details: OVX mice
Protocol: -Establishment of Ovariectomized Mice Model: The experimental protocols were approved by the IACUC (Approval code: IACUC230118) at the CHA Laboratory Animal Research Center. The mice were handled in compliance with the Guidelines for the Care and Use of Animals at the institution. Female C57BL6 mice (seven weeks old (n = 57)) were randomly divided into six groups (n = 8-10): […] All surgeries and pump implantations were performed under aseptic conditions. Mice were anesthetized before removing both sides of the ovaries. In the fourth week following surgery, an Alzet osmotic pump (Durect Corp, #1004) was implanted in the mice. […] Images were acquired at an effective pixel size of 50 μm (130 kV and 60 μA radiation source; 1.0 mm aluminum filter). Subsequently, 3D images were reconstructed from the 2D X-ray projections by implementing the Feldkamp algorithm, and appropriate image corrections, including ring artifact correction, beam hardening correction, and fine-tuning, were processed using NRecon software (SkyScan 1173, Belgium). The dynamic image range (contrast limits) was determined at 0-0.3 in units of attenuation coefficient and was applied to all datasets for optimum image contrast. After acquisition and reconstruction of the datasets, images were first reoriented on each 3D plane using DataViewer software (SkyScan 1173, Belgium) to align the long axis of the femur parallel to the coronal and sagittal planes. Next, 3D morphometric analyses of the distal femur and body of the lumbar vertebrae were performed using CT-Analyzer software (SkyScan 1173, Belgium). Regarding the region of interest (ROI), this work analyzed the 1.5 mm […] trabecular bone of the distal femur metaphysis, excluding the growth plate. The ROIs were delineated using a freehand drawing tool while maintaining a […] clearance from the endosteal surface. […] A global threshold of 60 (1.01573 g cm^-3) was applied to all scans to extract a physiologically accurate representation of the trabecular bone phase. […] All quantitative and structural parameters followed the nomenclature and units recommended by the American Society for Bone and Mineral Research (ASBMR) Histomorphometry Nomenclature Committee. After data quantification,^[ [26b] ^] 3D rendered images were generated to visualize the analyzed regions using the marching cube method. -H&E staining: Following decalcification, the specimens were fixed in paraffin and longitudinally sliced to a thickness of 3 μm using a microtome. Subsequently, each sample was affixed to a slide and exposed to a temperature of 55 °C. […] The slides underwent a 1 min wash in flowing purified water and immersed in Harris hematoxylin-I for 5 min, followed by a 1 min wash under flowing tap water. Sections were briefly immersed in ammonia water for 30 s and washed with tap water for 3 min. Subsequently, the sections were stained with Eosin Y for 2 min and 30 s, followed by gradual drying in 95%-100% ethanol. Any residual stain was rinsed with distilled water and each section was mounted. -Masson's trichrome staining: Following deparaffinization and hydration, the sections underwent treatment with a mordant containing a 5% iron alum solution in a dry oven at 56 °C for 30 min. Sections were washed under running tap water for 5-6 min to remove picric acid. Sections were stained with Weigert's iron hematoxylin solution for 10 min, followed by rinsing with purified water. A 5 min staining with Biebrich scarlet-acid fuchsin solution ensued, succeeded by washing with purified water. The sections were immersed in a phosphomolybdic-phosphotungstic acid solution for 5 min. After discarding the solution, the sections were washed with distilled water. Differentiation was performed in 1% glacial acetic acid solution for 3 min. The solution was discarded, and the remaining stain was washed with distilled water.

hBMSCs [4] = assay: Calcium deposit staining (X-Rhod-1) in hBMSCs; assay type: cell-based, human; details: X‐Rhod‐1, p < 0.05
Protocol: hBMSCs were differentiated in the presence of the 10 mM β‐glycerophosphate (Sigma‐Aldrich, G9422) and 50 µM ascorbic acid (Sigma‐Aldrich, A4403) in culture medium for 10 d. Subsequently, the cells were fixed with 4% PFA for 30 min, followed by two washes with Mg^2+‐and Ca^2+‐free dPBS (Welgene, LB‐204). To stain for calcium, X‐Rhod‐1 (Invitrogen, X14210) dye was diluted in Mg^2+‐and Ca^2+‐free dPBS at a concentration of 1 µM and incubated at room temperature in the dark for 1 h. The cells were then washed five times with Mg^2+‐and Ca^2+‐free dPBS at 10 min intervals. The samples were observed under a Cytation5 microscope (Agilent Technologies) at a wavelength of 595 nm.

osteocalcin (OCN) = assay: Immunostaining of osteogenic markers in hBMSCs; assay type: cell-based, human; details: 10 µM
hBMSCs [5] = assay: Cell viability / apoptosis of hBMSCs; assay type: cell-based, human
MDM2 [6] = molecular target: T1, MDM2; assay: Immunoblot with the intracellular proteasome system blocked by a proteasome inhibitor; assay type: cell-based; details: 0.5–2 μΜ carfilzomib with PROTAC
Protocol: as §1, with “After washing, a chemiluminescent substrate (ECL, Millipore, WBULS0100) was applied to the membrane to visualize protein bands using a chemiluminescence detector (for the antibodies used, see Table S2, Supporting Information).” left out
Target sequence in this assay (Q00987 whole entry, species assumed): as the sequence (Q00987 whole entry) above

[7] = alendronate comparison study, 0.5 mg kg^−1, n = 6

Compound: COc1ccc(C2=N[C@@H](c3ccc(Cl)cc3)[C@@H](c3ccc(Cl)cc3)N2C(=O)N2CCN(CC(=O)NCCOCCOCCNC(=O)CN3CCN(C(=O)N4C(c5ccc(OC)cc5OC(C)C)=N[C@H](c5ccc(Cl)cc5)[C@@H]4c4ccc(Cl)cc4)CC3=O)C(=O)C2)c(OC(C)C)c1 [CL117]
- MDM2 degradation (western blot) (MDM2 [1]): did not induce the degradation of MDM2

Compound: COc1ccc(C2=N[C@H](c3ccc(Cl)cc3)[C@H](c3ccc(Cl)cc3)N2C(=O)N2CCN(CC(=O)OC(C)(C)C)C(=O)C2)c(OC(C)C)c1 [CL139]
- MDM2 degradation (western blot) (MDM2 [1]): did not induce the degradation of MDM2

Compound: COc1ccc(C2=N[C@H](c3ccc(Cl)cc3)[C@H](c3ccc(Cl)cc3)N2C(=O)N2CCN(CC(=O)NCCCCCCCCCCCOc3cccc4c3C(=O)N(C3CCC(=O)NC3=O)C4=O)C(=O)C2)c(OC(C)C)c1 (stereo partly drawn) [CL145]
- decrease in MDM2 levels compared to the basal level (MDM2 [1]): over 80%

Compound: COc1ccc(C2=NC(c3ccc(Cl)cc3)C(c3ccc(Cl)cc3)N2C(=O)N2CCN(CC(=O)NCCCCCCCC#Cc3cccc4c3C(=O)N(C3CCC(=O)NC3=O)C4=O)C(=O)C2)c(OC(C)C)c1 (stereo not drawn) [CL174]
- MDM2 degradation (western blot) (MDM2 [1]): effectively decreased MDM2 levels
- decrease in MDM2 levels compared to the basal level (MDM2 [1]): over 80%
- maximal degradation concentration (Dmax) (MDM2 [1]; quantified western blot, 1 nM to 50 µM, n = 2): 0.5 μΜ
- DC50 (MDM2 [1]; quantified western blot, 1 nM to 50 µM, n = 2, read-out: half‐maximal degradation concentration (DC50)): 60 nM
- Kd (MDM2 [2]): 1270 nM
- concentration at which maximum degradation efficiency was achieved (EGFP‐MDM2; live imaging, 0.01 to 10 µM): 1 µM
- nuclear EGFP signal (EGFP‐MDM2; live imaging, treatment for 4 h): almost completely turned off the nuclear EGFP signal

Compound: O=C1CCC(N2Cc3c(C#CCCCNC(=O)c4ccc(NC(=O)[C@@H]5NC6(CCCCC6)[C@@]6(C(=O)Nc7cc(Cl)ccc76)[C@H]5c5cccc(Cl)c5F)cc4)cccc3C2=O)C(=O)N1 (stereo partly drawn) [MD224, reference compound]
- degradation efficiency of EGFP‐MDM2 by concentration (EGFP‐MDM2; low concentrations (0.01–0.1 µM) versus higher concentrations (1–10 µM)): greater degradation efficiency of EGFP‐MDM2 compared to higher concentrations

Compound: COc1ccc(C2=N[C@@H](c3ccc(Cl)cc3)[C@@H](c3ccc(Cl)cc3)N2C(=O)N2CCNC(=O)C2)c(OC(C)C)c1 [Nutlin-3, reference compound]
- bone histology (H&E staining) versus OVX group ([3]; tibia and femur tissues): no significant differences
- calcium deposits compared to the control group (hBMSCs [4]): significantly increased
- osteocalcin (OCN) protein intensity compared to the control group (osteocalcin (OCN)): no statistically significant difference
- cell viability (hBMSCs [5]): without adversely affecting cell viability

Compound: NCCCC(O)(P(=O)(O)O)P(=O)(O)O [alendronate, reference compound]
- increase in trabecular thickness (Tb.Th) relative to the OVX group [3, 7]: 17.07%
- recovery in BV/TV relative to the OVX group [3, 7]: 38.66%

Compound: CC(C)C[C@H](NC(=O)[C@H](CCc1ccccc1)NC(=O)CN1CCOCC1)C(=O)N[C@@H](Cc1ccccc1)C(=O)N[C@@H](CC(C)C)C(=O)[C@@]1(C)CO1 [carfilzomib]
- effect on PROTAC-induced MDM2 proteolysis (MDM2 [6]): blocked the efficacy of PROTAC in a dose‐dependent manner
